According to patent publication US20230141101A1, “PDE4 INHIBITOR COMPOUND AND MEDICAL USE THEREOF” (Suzhou Longbotai Pharmaceuticals Co., Ltd., priority 2020, published 2023):

Key:
Format in all cases: biochemical
Settings in all cases: 20 nM
[1] = target: T1, PDE4B1 (Homo sapiens, UniProt Q07343); test: PDE4 inhibitory activity assay (FAM-cAMP enzymatic reaction), PDE4B1
T1 construct: purchased BPS 60041
Procedure, shortened: (§1)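 Each isoform is incubated with test compound for 15 min at room temperature before FAM-cAMP substrate starts a 30-min reaction.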

[2] = target: T2, PDE4A1A (Homo sapiens, UniProt P27815); test: PDE4 inhibitory activity assay (FAM-cAMP enzymatic reaction), PDE4A1A
T2 construct: purchased BPS 60040
T2 sequence (P27815 1-647 isoform P27815-4): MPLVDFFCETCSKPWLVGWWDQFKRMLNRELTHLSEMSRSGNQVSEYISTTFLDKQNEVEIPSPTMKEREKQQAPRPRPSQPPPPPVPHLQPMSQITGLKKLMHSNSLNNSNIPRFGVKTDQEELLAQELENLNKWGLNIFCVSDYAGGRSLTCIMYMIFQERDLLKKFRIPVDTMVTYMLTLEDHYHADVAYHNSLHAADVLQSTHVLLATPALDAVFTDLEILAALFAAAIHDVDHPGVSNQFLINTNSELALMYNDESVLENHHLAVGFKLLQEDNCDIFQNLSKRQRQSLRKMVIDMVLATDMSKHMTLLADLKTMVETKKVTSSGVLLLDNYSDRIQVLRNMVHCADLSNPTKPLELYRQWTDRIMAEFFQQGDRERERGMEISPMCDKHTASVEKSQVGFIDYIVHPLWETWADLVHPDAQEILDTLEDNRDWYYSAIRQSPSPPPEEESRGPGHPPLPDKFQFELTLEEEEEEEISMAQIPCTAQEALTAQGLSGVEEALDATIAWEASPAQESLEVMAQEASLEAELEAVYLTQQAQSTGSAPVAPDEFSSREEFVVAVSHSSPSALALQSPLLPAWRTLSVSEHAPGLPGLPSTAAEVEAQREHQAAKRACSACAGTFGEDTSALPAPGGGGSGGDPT
Procedure, shortened: as §1

[3] = target: PDE4D2 (Homo sapiens, UniProt Q08499); test: PDE4 inhibitory activity assay (FAM-cAMP enzymatic reaction), PDE4D2
PDE4D2, sequence (Q08499 303-809): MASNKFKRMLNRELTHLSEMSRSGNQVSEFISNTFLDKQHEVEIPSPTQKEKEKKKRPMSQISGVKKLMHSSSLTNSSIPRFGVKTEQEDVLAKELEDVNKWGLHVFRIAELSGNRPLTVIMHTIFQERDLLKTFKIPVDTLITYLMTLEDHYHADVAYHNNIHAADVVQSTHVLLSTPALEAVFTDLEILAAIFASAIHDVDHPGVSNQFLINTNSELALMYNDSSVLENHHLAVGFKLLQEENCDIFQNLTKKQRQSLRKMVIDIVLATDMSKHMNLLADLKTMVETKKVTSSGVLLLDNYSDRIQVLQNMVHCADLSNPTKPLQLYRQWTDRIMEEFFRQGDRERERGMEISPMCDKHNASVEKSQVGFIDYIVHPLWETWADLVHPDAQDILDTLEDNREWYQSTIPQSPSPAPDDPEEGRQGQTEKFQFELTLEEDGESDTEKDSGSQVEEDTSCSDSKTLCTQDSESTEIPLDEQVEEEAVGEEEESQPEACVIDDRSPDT
Procedure, shortened: as §1

T1 sequence (Q07343 whole entry): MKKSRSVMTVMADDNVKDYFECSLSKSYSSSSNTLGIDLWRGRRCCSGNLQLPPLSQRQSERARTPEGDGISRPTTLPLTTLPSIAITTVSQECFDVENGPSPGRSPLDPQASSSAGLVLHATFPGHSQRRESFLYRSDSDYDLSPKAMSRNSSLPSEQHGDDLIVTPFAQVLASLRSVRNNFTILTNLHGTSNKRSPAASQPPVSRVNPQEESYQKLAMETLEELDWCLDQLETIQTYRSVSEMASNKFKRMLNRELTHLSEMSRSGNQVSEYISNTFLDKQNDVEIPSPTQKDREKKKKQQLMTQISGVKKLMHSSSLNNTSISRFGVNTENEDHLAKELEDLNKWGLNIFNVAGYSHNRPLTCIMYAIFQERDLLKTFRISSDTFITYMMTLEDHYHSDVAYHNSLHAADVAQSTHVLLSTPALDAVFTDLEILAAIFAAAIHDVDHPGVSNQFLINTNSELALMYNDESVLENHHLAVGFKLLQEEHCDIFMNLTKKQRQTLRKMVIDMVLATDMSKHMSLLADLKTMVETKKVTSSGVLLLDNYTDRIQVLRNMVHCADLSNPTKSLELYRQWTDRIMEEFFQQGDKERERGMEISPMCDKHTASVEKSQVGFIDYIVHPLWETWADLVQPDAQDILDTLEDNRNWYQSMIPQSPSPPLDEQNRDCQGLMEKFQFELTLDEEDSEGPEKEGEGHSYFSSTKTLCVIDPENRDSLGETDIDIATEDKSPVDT

Row | Structure (SMILES) | PDE4 B1 inhibitory effect at 20 nM [1] | PDE4 A1 inhibitory effect at 20 nM [2] | PDE4 D2 inhibitory effect at 20 nM [3]
1 | CCOc1nc([C@@H](CS(C)(=O)=O)n2c(=O)[nH]c3cc(-c4ccccc4OC)cnc32)ccc1OC [Ex. 83, (S)-3-(1-(6-ethoxy-5-methoxypyridin-2-yl)-2-(methylsulfonyl)ethyl)-6-(2-methoxyphenyl)-1H-imidazo[4,5-b]pyridin-2(3H)-one] | + | + | +
2 | CCOc1nc([C@@H](CS(C)(=O)=O)n2c(=O)[nH]c3c(C)c(-c4cccc(OC)c4F)cnc32)ccc1OC [Ex. 42, (S)-6-(2-fluoro-3-methoxyphenyl)-3-(1-(6-ethoxy-5-methoxypyridin-2-yl)-2-(methylsulfonyl)ethyl)-7-methyl-1H-imidazo[4,5-b]pyridin-2(3H)-one] | + | + | +
3 | CCOc1nc([C@H](CS(C)(=O)=O)n2c(=O)n(CC)c3c(C)c(-c4ccccc4)cnc32)ccc1OC [Ex. 47, (R)-3-(1-(6-ethoxy-5-methoxypyridin-2-yl)-2-(methylsulfonyl)ethyl)-1-ethyl-7-methyl-6-phenyl-1H-imidazo[4,5-b]pyridin-2(3H)-one] | − | − | −
4 | CCOc1nc([C@@H](CS(C)(=O)=O)n2c(=O)[nH]c3c(C)c(-c4cc(OC)ccc4F)cnc32)ccc1OC [Ex. 41, (S)-6-(2-fluoro-5-methoxyphenyl)-3-(1-(6-ethoxy-5-methoxypyridin-2-yl)-2-(methylsulfonyl)ethyl)-7-methyl-1H-imidazo[4,5-b]pyridin-2(3H)-one] | + | + | +
5 | CCOc1nc([C@@H](CS(C)(=O)=O)n2c(=O)[nH]c3cc(-c4cc(OC)ccc4F)ccc32)ccc1OC [Ex. 181, (S)-5-(2-fluoro-5-methoxyphenyl)-1-(1-(6-ethoxy-5-methoxypyridin-2-yl)-2-(methylsulfonyl)ethyl)-1H-benzo[d]imidazol-2(3H)-one] | + | + | +
6 | CCOc1nc([C@@H](CS(C)(=O)=O)n2c(=O)n(C)c3cc(-c4ccccn4)cnc32)ccc1OC [Ex. 123, (S)-3-(1-(6-ethoxy-5-methoxypyridin-2-yl)-2-(methylsulfonyl)ethyl)-1-methyl-6-(pyridin-2-yl)-1H-imidazo[4,5-b]pyridin-2(3H)-one] | + | + | +
7 | CCOc1nc([C@@H](CS(C)(=O)=O)n2c(=O)[nH]c3cc(-c4ccc(C)cc4F)ccc32)ccc1OC [Ex. 179, (S)-5-(2-fluoro-4-methylphenyl)-1-(1-(6-ethoxy-5-methoxypyridin-2-yl)-2-(methylsulfonyl)ethyl)-1H-benzo[d]imidazol-2(3H)-one] | + | + | +
8 | CCOc1nc([C@H](CS(C)(=O)=O)N2Cc3cccc(NC(=O)C4CC4)c3C2=O)ccc1OC [Ex. 218, (R)—N-(2-(1-(6-ethoxy-5-methoxypyridin-2-yl)-2-(methylsulfonyl)ethyl)-3-oxoisoindolin-4-yl)cyclopropanecarboxamide] | + | + | +
9 | CCOc1nc([C@@H](CS(C)(=O)=O)n2c(=O)[nH]c3cc(-c4c(F)cccc4F)cnc32)ccc1OC [Ex. 88, (S)-6-(2,6-difluorophenyl)-3-(1-(6-ethoxy-5-methoxypyridin-2-yl)-2-(methylsulfonyl)ethyl)-1H-imidazo[4,5-b]pyridin-2(3H)-one] | + | + | +
10 | CCOc1nc([C@@H](CS(C)(=O)=O)n2c(=O)[nH]c3cc(-c4ccccn4)cnc32)ccc1OC [Ex. 122, (S)-6-(pyridin-2-yl)-3-(1-(6-ethoxy-5-methoxypyridin-2-yl)-2-(methylsulfonyl)ethyl)-1H-imidazo[4,5-b]pyridin-2(3H)-one] | + | + | +
11 | CCOc1nc([C@@H](CS(C)(=O)=O)n2c(=O)[nH]c3cc(-c4ccc(F)cc4)ccc32)ccc1OC [Ex. 135, (S)-1-(1-(6-ethoxy-5-methoxypyridin-2-yl)-2-(methylsulfonyl)ethyl)-5-(4-fluorophenyl)-1H-benzo[d]imidazol-2(3H)-one] | + | + | +
12 | CCOc1nc([C@H](CS(C)(=O)=O)n2c(=O)[nH]c3c(C)c(-c4c(F)cccc4F)cnc32)ccc1OC [Ex. 24, (R)-6-(2,6-difluorophenyl)-3-(1-(6-ethoxy-5-methoxypyridin-2-yl)-2-(methylsulfonyl)ethyl)-7-methyl-1H-imidazo[4,5-b]pyridin-2(3H)-one] | − | − | −
13 | CCOc1nc([C@@H](CS(C)(=O)=O)n2c(=O)n(C3CC3)c3cc(C(F)(F)F)ccc32)ccc1OC [Ex. 211, (S)-3-cyclopropyl-1-(1-(6-ethoxy-5-methoxypyridin-2-yl)-2-(methylsulfonyl)ethyl)-5-(trifluoromethyl)-1H-benzo[d]imidazol-2(3H)-one] | + | + | +
14 | CCOc1nc([C@H](CS(C)(=O)=O)n2c(=O)[nH]c3cc(-c4cc(F)ccc4F)cnc32)ccc1OC [Ex. 98, (R)-6-(2,5-difluorophenyl)-3-(1-(6-ethoxy-5-methoxypyridin-2-yl)-2-(methylsulfonyl)ethyl)-1H-imidazo[4,5-b]pyridin-2(3H)-one] | − | − | −
15 | CCOc1nc([C@@H](CS(C)(=O)=O)n2c(=O)[nH]c3cc(-c4cc(C)ccc4F)ccc32)ccc1OC [Ex. 175, (S)-5-(2-fluoro-5-methylphenyl)-1-(1-(6-ethoxy-5-methoxypyridin-2-yl)-2-(methylsulfonyl)ethyl)-1H-benzo[d]imidazol-2(3H)-one] | + | + | +
16 | CCOc1nc([C@@H](CS(C)(=O)=O)n2c(=O)n(C)c3cc(-c4c(F)cccc4OC)ccc32)ccc1OC [Ex. 191, (S)-5-(6-fluoro-2-methoxyphenyl)-1-(1-(6-ethoxy-5-methoxypyridin-2-yl)-2-(methylsulfonyl)ethyl)-3-methyl-1H-benzo[d]imidazol-2(3H)-one] | + | + | +
17 | CCOc1nc([C@@H](CS(C)(=O)=O)n2c(=O)[nH]c3cc(-c4cccc(F)c4F)ccc32)ccc1OC [Ex. 152, (S)-5-(2,3-difluorophenyl)-1-(1-(6-ethoxy-5-methoxypyridin-2-yl)-2-(methylsulfonyl)ethyl)-1H-benzo[d]imidazol-2(3H)-one] | + | + | +
18 | CCOc1nc([C@@H](CS(C)(=O)=O)n2c(=O)[nH]c3cc(-c4cc(F)ccc4OC)cnc32)ccc1OC [Ex. 117, (S)-6-(5-fluoro-2-methoxyphenyl)-3-(1-(6-ethoxy-5-methoxypyridin-2-yl)-2-(methylsulfonyl)ethyl)-1H-imidazo[4,5-b]pyridin-2(3H)-one] | + | + | +
19 | CCOc1nc([C@@H](CS(C)(=O)=O)n2c(=O)[nH]c3c(-c4ccccc4C)cccc32)ccc1OC [Ex. 204, (S)-1-(1-(6-ethoxy-5-methoxypyridin-2-yl)-2-(methylsulfonyl)ethyl)-4-(o-methylphenyl)-1H-benzo[d]imidazol-2(3H)-one] | + | + | +
20 | CCOc1nc([C@@H](CS(C)(=O)=O)n2c(=O)n(CCS(C)(=O)=O)c3cc(Br)ccc32)ccc1OC [Ex. 210, (S)-5-bromo-1-(1-(6-ethoxy-5-methoxypyridin-2-yl)-2-(methylsulfonyl)ethyl)-3-(2-(methylsulfonyl)ethyl)-1H-benzo[d]imidazol-2(3H)-one] | − | − | −
21 | CCOc1nc([C@@H](CS(C)(=O)=O)n2c(=O)[nH]c3cc(-c4ccccc4C(F)(F)F)cnc32)ccc1OC [Ex. 85, (S)-3-(1-(6-ethoxy-5-methoxypyridin-2-yl)-2-(methylsulfonyl)ethyl)-6-(2-(trifluoromethyl)phenyl)-1H-imidazo[4,5-b]pyridin-2(3H)-one] | + | + | +
